# Tested on: Schizochytrium limacinum HX-308
# Assay: Shake-flask fermentation of Schizochytrium limacinum HX-308 with exogenous compatible solute added to the fermentation medium (fatty acid composition, DHA yield, biomass)
# Format: cell-based
# From the text: The detection method of the following Examples is the same as that in the application titled “Schizochytrium limacinum and method of production of DHA oil using the same” (Application No. 200910033869.5) The strain is Schizochytrium limacinum HX-308 with deposit number CCTCC No. M209059. Seed medium: D-glucose 40 g/L, yeast extract 2 g/L, sodium glutamate 10 g/L, MgCl2 3 g/L, CaCl2·2H2O 1 g/L, KH2PO4 4 g/L, KCl 2 g/L, NaCl 15 g/L, MgSO4·7H2O 5 g/L, FeCl3 0.1 g/L. (See “A Schizochytrium limacinum and method of production of DHA oil using the same” (Application No. 200910033869.5)). Fermentation medium: D-glucose 40 g/L, yeast extract 2 g/L, sodium glutamate 10 g/L, MgCl2 3 g/L, (NH4)2SO4 6 g/L, KH2PO4 4 g/L, KCl 2 g/L, NaCl 15 g/L, MgSO4·7H2O 5 g/L, FeCl3 0.1 g/L. (See “A Schizochytrium limacinum and method of production of DHA oil using the same” (Application No. 200910033869.5)). Cultural method: strain was inoculated into seed medium with inoculation amount of 5% (v/v), cultured in a 500 mL shake flask for 24 h to log phase under 170 r at 25° C., and inoculated into the fermentation medium with addition of a certain amount of glycine betaine (such as 10 mmol/L, 40 mmol/L, 70 mmol/L, 100 mmol/L) in inoculation amount of 9% (v/v) for culturing; fermentation ceased when glucose reached an amount of 0 g/L. The results are shown in Table 1. The strain is Schizochytrium limacinum HX-308 with deposit number CCTCC No. M209059. Seed medium: D-glucose 40 g/L, yeast extract 2 g/L, sodium glutamate 10 g/L, MgCl2 3 g/L, CaCl2·2H2O 1 g/L, KH2PO4 4 g/L, KCl 2 g/L, NaCl 15 g/L, MgSO4·7H2O 5 g/L, FeCl3 0.1 g/L. Fermentation medium: D-glucose 40 g/L, yeast extract 2 g/L, sodium glutamate 10 g/L, MgCl2 3 g/L, (NH4)2SO4 6 g/L, KH2PO4 4 g/L, KCl 2 g/L, NaCl 15 g/L, MgSO4·7H2O 5 g/L, FeCl3 0.1 g/L. Cultural method: the strain was inoculated into seed medium with inoculation amount of 5% (v/v), cultured in a 500 mL shake flask for 24 h to log phase under 170 r at 25° C., and inoculated into the fermentation medium with addition of a certain amount of trehalose (such as 10 mmol/L, 40 mmol/L, 80 mmol/L) in inoculation amount of 9% (v/v); fermentation ceased when glucose reached an amount of 0 g/L. The results are shown in Table 2.
compound,measurement,setting,value
OC[C@H]1O[C@H](O[C@H]2O[C@H](CO)[C@@H](O)[C@H](O)[C@H]2O)[C@H](O)[C@@H](O)[C@@H]1O [trehalose],increase of DHA yield,"appropriate amount of trehalose, versus no addition",92%
same,DHA yield,"appropriate amount of trehalose, increased from 3.9 g/L",7.5 g/L
same,yield of total fatty acids,"appropriate amount of trehalose, increased from 8.8 g/L",16.7 g/L
same,ratio of DHA in total biomass,"appropriate amount of trehalose, increased from 57",99 mg/g
same,Biomass,"appropriate amount of trehalose, increased from 60 g/L",76 g/L
same,ARA (% total fatty acids),exogenous trehalose 10 mM,0.6 % total fatty acids
same,Biomass,exogenous trehalose 10 mM,70 g/L
same,C14:0 (% total fatty acids),exogenous trehalose 10 mM,9.5 % total fatty acids
same,C16:0 (% total fatty acids),exogenous trehalose 10 mM,22.3 % total fatty acids
same,DHA (% total fatty acids),exogenous trehalose 10 mM,44.8 % total fatty acids
same,DHA (mg/g biomass),exogenous trehalose 10 mM,57.1 mg/g biomass
same,DHA yield,exogenous trehalose 10 mM,4 g/L
same,DPA (% total fatty acids),exogenous trehalose 10 mM,12.3 % total fatty acids
same,EPA (% total fatty acids),exogenous trehalose 10 mM,1.6 % total fatty acids
same,Others (% total fatty acids),exogenous trehalose 10 mM,8.1 % total fatty acids
same,Squalene (% total fatty acids),exogenous trehalose 10 mM,0.8 % total fatty acids
same,Total fatty acid yield,exogenous trehalose 10 mM,8.9 g/L
same,ARA (% total fatty acids),exogenous trehalose 40 mM,1.9 % total fatty acids
same,Biomass,exogenous trehalose 40 mM,74 g/L
same,C14:0 (% total fatty acids),exogenous trehalose 40 mM,9.6 % total fatty acids
same,C16:0 (% total fatty acids),exogenous trehalose 40 mM,21.3 % total fatty acids
same,DHA (% total fatty acids),exogenous trehalose 40 mM,47.4 % total fatty acids
same,DHA (mg/g biomass),exogenous trehalose 40 mM,56.6 mg/g biomass
same,DHA yield,exogenous trehalose 40 mM,4.2 g/L
same,DPA (% total fatty acids),exogenous trehalose 40 mM,12.6 % total fatty acids
same,EPA (% total fatty acids),exogenous trehalose 40 mM,1.8 % total fatty acids
same,Others (% total fatty acids),exogenous trehalose 40 mM,4.5 % total fatty acids
same,Squalene (% total fatty acids),exogenous trehalose 40 mM,0.9 % total fatty acids
same,Total fatty acid yield,exogenous trehalose 40 mM,8.9 g/L
same,ARA (% total fatty acids),exogenous trehalose 80 mM,1.2 % total fatty acids
same,Biomass,exogenous trehalose 80 mM,76 g/L
same,C14:0 (% total fatty acids),exogenous trehalose 80 mM,10.7 % total fatty acids
same,C16:0 (% total fatty acids),exogenous trehalose 80 mM,23.2 % total fatty acids
same,DHA (% total fatty acids),exogenous trehalose 80 mM,45 % total fatty acids
same,DHA (mg/g biomass),exogenous trehalose 80 mM,99.3 mg/g biomass
same,DHA yield,exogenous trehalose 80 mM,7.5 g/L
same,DPA (% total fatty acids),exogenous trehalose 80 mM,12.2 % total fatty acids
same,EPA (% total fatty acids),exogenous trehalose 80 mM,1.3 % total fatty acids
same,Others (% total fatty acids),exogenous trehalose 80 mM,5.5 % total fatty acids
same,Squalene (% total fatty acids),exogenous trehalose 80 mM,0.9 % total fatty acids
same,Total fatty acid yield,exogenous trehalose 80 mM,16.7 g/L
same,ARA (% total fatty acids),exogenous trehalose 160 mM,1.0 % total fatty acids
same,Biomass,exogenous trehalose 160 mM,78 g/L
same,C14:0 (% total fatty acids),exogenous trehalose 160 mM,11.0 % total fatty acids
same,C16:0 (% total fatty acids),exogenous trehalose 160 mM,22.5 % total fatty acids
same,DHA (% total fatty acids),exogenous trehalose 160 mM,43.2 % total fatty acids
same,DHA (mg/g biomass),exogenous trehalose 160 mM,89.7 mg/g biomass
same,DHA yield,exogenous trehalose 160 mM,7 g/L
same,DPA (% total fatty acids),exogenous trehalose 160 mM,12.1 % total fatty acids
same,EPA (% total fatty acids),exogenous trehalose 160 mM,1.4 % total fatty acids
same,Others (% total fatty acids),exogenous trehalose 160 mM,8.3 % total fatty acids
same,Squalene (% total fatty acids),exogenous trehalose 160 mM,0.5 % total fatty acids
same,Total fatty acid yield,exogenous trehalose 160 mM,16.2 g/L
same,Biomass,exogenous trehalose 200 mM,81 g/L
same,C14:0 (% total fatty acids),exogenous trehalose 200 mM,11.7 % total fatty acids
same,C16:0 (% total fatty acids),exogenous trehalose 200 mM,21.5 % total fatty acids
same,DHA (% total fatty acids),exogenous trehalose 200 mM,41.7 % total fatty acids
same,DHA (mg/g biomass),exogenous trehalose 200 mM,78 mg/g biomass
same,DHA yield,exogenous trehalose 200 mM,6.3 g/L
same,DPA (% total fatty acids),exogenous trehalose 200 mM,11.5 % total fatty acids
same,EPA (% total fatty acids),exogenous trehalose 200 mM,1.4 % total fatty acids
same,Others (% total fatty acids),exogenous trehalose 200 mM,12.2 % total fatty acids
same,Total fatty acid yield,exogenous trehalose 200 mM,15.1 g/L
same,ARA (% total fatty acids),exogenous trehalose 280 mM,1.0 % total fatty acids
same,Biomass,exogenous trehalose 280 mM,76 g/L
same,C14:0 (% total fatty acids),exogenous trehalose 280 mM,11.1 % total fatty acids
same,C16:0 (% total fatty acids),exogenous trehalose 280 mM,22.7 % total fatty acids
same,DHA (% total fatty acids),exogenous trehalose 280 mM,39.1 % total fatty acids
same,DHA (mg/g biomass),exogenous trehalose 280 mM,29 mg/g biomass
same,DHA yield,exogenous trehalose 280 mM,2.2 g/L
same,DPA (% total fatty acids),exogenous trehalose 280 mM,10.8 % total fatty acids
same,EPA (% total fatty acids),exogenous trehalose 280 mM,7.7 % total fatty acids
same,Others (% total fatty acids),exogenous trehalose 280 mM,7.6 % total fatty acids
same,Total fatty acid yield,exogenous trehalose 280 mM,5.6 g/L
